According to PubChem BioAssay (NCI):
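Results reflect a 48-hour exposure of cells in 96-well plates to compound at five concentrations. GI50: concentration for 50% inhibition of growth. TGI denotes the concentration required for complete inhibition of growth.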 Where a SMILES comes first, the peptide text is derived from it. The star is where a group is joined. Trt = c1ccc(C(c2ccccc2)(c2ccccc2)*)cc1; Cbz = O=C(OCc1ccccc1)*

What was measured:
Experiment in all cases: DTP human tumour cell line panel, 48 h
[1] = tested on: DU-145 prostate
[2] = tested on: OVCAR-5 ovarian
[3] = tested on: SN12C renal
[4] = tested on: NCI-H460 lung
[5] = tested on: T-47D breast
[6] = tested on: OVCAR-8 ovarian
[7] = tested on: HS 578T breast

SMILES	GI50 [1] [µM]	TGI [1] [µM]	GI50 [2] [µM]	TGI [2] [µM]	GI50 [3] [µM]	TGI [3] [µM]	GI50 [4] [µM]	TGI [4] [µM]	GI50 [5] [µM]	TGI [5] [µM]	GI50 [6] [µM]	TGI [6] [µM]	GI50 [7] [µM]	TGI [7] [µM]
COc1cccc2c1cc1c3c(cc4c(c32)OCO4)C(=O)N1	8.79	66.4	6.56	> 100	2.87	19.6	3.68	20.4	2.33	6.81	2.28	6.01	2.33	6.82
O=C(Nc1cccc(C(F)(F)F)c1)c1cc2ccccc2cc1O	2.22	> 100	3.5	> 100	1.49	> 100	1.41	> 44.1	1.68	58	3.7	> 31.3	1.89	> 44
Cc1ccc(-c2n[nH]c(=O)c3noc(-c4ccc(C)cc4)c23)cc1	2.82	15.2	5.99	> 100	1.4	> 100	0.751	25	2.41	> 100	1.82	27.7	1.31	15.9
CC(=O)[C-](C(C)=O)c1ccccc1.CC(=O)[C-](C(C)=O)c1ccccc1.CC(=O)[C-](C(C)=O)c1ccccc1.[Cl-].[Zr+4]			> 100	> 100	> 100	> 100	> 100	> 100			57.5	> 100		
C/C(=N/O)c1ccc(Nc2cc(-n3ccnc3)c3ccccc3n2)cc1	38.1	> 100	86.6	> 100	39.5	> 100	21.5	> 100	9.96	> 100	6.01	25.5	12.9	> 100
O=C(Nc1nc2ccccc2s1)c1cc(-c2ccc(F)cc2)n2nc(-c3ccccc3)cc2n1	4.95	> 100			6.49	> 100			3.34	> 100			2.29	8.64
CC(C(N)=O)N(C)C(=O)c1cnc2ccccc2c1 (configuration not stated)		> 100		> 100		> 100		> 100		> 100		> 100		
COC(=O)C(CSC(c1ccccc1)(c1ccccc1)c1ccccc1)NC(=O)C(CC(N)=O)NC(=O)OCc1ccccc1 (stereo not drawn) (Cbz-Asn-Cys(Trt)-OMe; configuration not given here)	2.68	8.61	7.23	20.2	3.54	15	4.5	15.8	2.13	8.33	3.16	17	4.55	26.5
COc1ccc(C(=O)c2cc3c(N)c(C(=O)Nc4cccc(OC)c4)sc3nc2C)cc1	0.523	> 100	1.54	> 100	0.867	> 100	0.741	> 100	4.7	> 100	1.75	> 100	0.546	> 100
NNC(=O)C(O)C(O)C(=O)NN (configuration not stated)		> 100		> 100		> 100				> 100		> 100		> 100
CN1CCN(c2ccc3nc(-c4ccc(OCCCCN5CCN(CCCCN6C(=O)c7cccc8cccc(c78)C6=O)CC5)cc4)[nH]c3c2)CC1	29.4	> 100	> 100	> 100			63.4	> 100	31.2	> 100	48.6	> 100	3.39	> 100
CNC(c1ccncc1)C(NC)c1ccncc1 (configuration not stated)		> 100		> 100		> 100				> 100		> 100		> 100
CCOC(=O)c1c(C)n(Cc2ccccc2)c2c1cc1oc(=O)c(=O)n3cnc2c13	11.8	> 50	36.9	> 50	10.4	24.9	15.9	> 50			22.8	> 50	34.3	> 50
Cc1cc(Br)cc(C)c1NC(=O)C(=O)Nn1c(=S)[nH]c2ccccc2c1=O				> 100		> 100		> 100		> 100		> 100		> 100
NS(=O)(=O)c1ccc(NC(=O)c2cccc(NC3=C(Cl)C(=O)N(Cc4ccccc4)C3=O)c2)cc1	11.1	25.1			11.6	25.9	10.5	25.6	33.7	> 100	12.3	41.8	7.92	36.7
Cc1cc2nc(-c3c(F)cccc3Cl)n(Cc3c(F)cccc3Cl)c2cc1C	16.1	41.4	15.9	34.1	11.7	24.2	6.32	30.9			18.9	46.6	15.8	48.4
